Test results from patent US20120190579A1, “Functionalisation of Solid Substrates” (priority 2009, published 2012).

Target: neutravidin-coated agarose beads (Gallus gallus, UniProt P02701)
Test: Pull-down and release of biotinylated protein adduct on neutravidin coated agarose beads
Details: release with β-mercaptoethanol (25 mM) 2 h at 37° C.; densitometry vs protein series dilution
Method: Protein/biotin-PEG-bromomaleimide adduct (200 μL) and unmodified model protein (200 μL) were washed independently with PBS buffer (3×500 μL) in a concentrator (Vivaspin, cut off 10 k) yielding protein solutions (300 μL) (In). For each of the protein solutions obtained, neutravidin-coated agarose beads (750 μL of 50% aqueous slurry) were washed with PBS (2×500 μL). Protein solution (300 μL) was then added to the beads and the mixture incubated at 4° C. for 30 mins. The mixture was centrifuged and the flow through (FT) collected. The beads were washed with PBS (2×500 μL) and both wash fractions collected (W1 and W2). Protein was released from the beads by incubation in PBS (300 μL) containing β-mercaptoethanol (25 mM) for 2 h at 37° C. The sample was centrifuged and the eluant (El) containing cleaved GrB2-SH2 domain L111C collected.
The amount of protein recovered was determined as 44% by comparison with a protein series dilution via densitometry. However, correcting for irreversibly physisorbed protein (determined using the unmodified protein control) the corrected recovery was 71%.

Compound	amount of protein recovered [%]
GrB2-SH2 Domain L111C/Biotin-PEG-bromomaleimide Adduct	44

Target: T1, human somatostatin receptor 2 (Homo sapiens, UniProt P30874)
T1 construct: host or cells: HEK293 cells stably expressing Kir3.1 and Kir3.2A
Test: Whole cell patch-clamp current recordings of bridged somatostatin analogues
Format: cell-based
Details: Pertussis toxin 100 ng/ml overnight; Tertiapin 100 nM

T1 sequence (P30874 whole entry): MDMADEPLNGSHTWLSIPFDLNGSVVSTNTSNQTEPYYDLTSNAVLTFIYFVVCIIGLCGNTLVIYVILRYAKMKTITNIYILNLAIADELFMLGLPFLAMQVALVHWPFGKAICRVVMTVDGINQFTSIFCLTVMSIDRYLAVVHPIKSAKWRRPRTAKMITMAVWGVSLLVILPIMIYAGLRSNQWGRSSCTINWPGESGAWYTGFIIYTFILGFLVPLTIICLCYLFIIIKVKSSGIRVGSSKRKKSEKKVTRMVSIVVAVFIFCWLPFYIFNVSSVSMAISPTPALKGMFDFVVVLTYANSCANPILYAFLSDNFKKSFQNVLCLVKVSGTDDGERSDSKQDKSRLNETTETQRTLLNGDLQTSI

Compound	GIRK currents after treatment of cells with inhibitor (control)
Pertussis toxin	currents were largely inhibited
Tertiapin Q	currents were largely inhibited

System: not given
Test: not given
Details: not given

Compound	melting point [°C]
COC(=O)[C@H](CSC1=CC(=O)N(C)C1=O)NC(=O)OC(C)(C)C	101 to 103
O=C1NC(=O)C23NCC[C@H]2C[C@H]13 (some centres unmarked)	110 to 113
O=C1NC(=O)C(Sc2ccccn2)=C1Sc1ccccn1	70 to 72
CC(C)(C)OC(=O)NCCOCCOCCNC(=O)CCCC[C@@H]1SC[C@@H]2NC(=O)N[C@@H]21 (stereo in doubt)	106 to 108
O=C(CCCC[C@@H]1SC[C@@H]2NC(=O)N[C@@H]21)NCCOCCOCCN1C(=O)C=C(Br)C1=O (stereo in doubt)	95 to 98
O=C(CCCC[C@@H]1SC[C@@H]2NC(=O)N[C@@H]21)NCCOCCOCCN1C(=O)C(Br)=C(Br)C1=O (stereo in doubt)	100 to 102

Results, then the compound that gave them:

melting point [°C]	Compound
148 to 151	O=C1C=C(Br)C(=O)N1
77 to 79	CN1C(=O)C=C(Br)C1=O
145 to 147	COC(=O)[C@H](CSC1=CC(=O)NC1=O)NC(=O)OC(C)(C)C
68 to 76	C=CCCNC1=CC(=O)NC1=O
238 to 241	O=C1NC(=O)C(I)=C1I
46 to 50	O=C1NC(=O)C(SCCO)=C1SCCO
112 to 115	O=C1CC2(SCCS2)C(=O)N1
99 to 101	CCCCCCSC1=CC(=O)NC1=O
